Data as given in patent publication US20250115739A1, “COMPOUND, RUBBER BLEND CONTAINING THE COMPOUND, VEHICLE TIRE COMPRISING THE RUBBER BLEND IN AT LEAST ONE COMPONENT, PROCESS FOR PREPARING THE COMPOUND, AND USE OF THE COMPOUND AS AN ANTI-AGING AGENT AND/OR ANTIOXIDANT” (Continental Reifen Deutschland GmbH, priority 2022, published 2025).

Experiment: Measurement of oxidation induction time (OIT) by DSC
Conditions: for Time [min] at 180° C. (time to oxidation, oxidation induction time): isothermal 180° C., O2 atmosphere 50 ml/min, with polyisoprene LIR-50, DSC peak
Protocol: The compound of formula III) was investigated under laboratory conditions for its potential protective effect as an aging stabilizer by measurement of the oxidation induction time.
To this end the compounds of formula III) and 6-PPD in each case together with a polymer (liquid synthetic polyisoprene (IR), LIR-50, Kuraray, weight average molecular weight distribution Mw=54 000 g/mol, glass transition temperature Tg=−63° C.) were heated at constant temperature (180° C.) until onset of oxidation (start temperature 35° C., heating to 170° C. at a heating rate of 20 K/min (kelvin per minute), heating to 180° C. at a heating rate of 1 K/min; purge gas: nitrogen (N2), volume flow 50 ml/min).
The specimen was kept under isothermal conditions at 180° C. under an N2 atmosphere for 5 minutes and the atmosphere was then switched to an 02 atmosphere (volume flow 50 ml/min).
Oxidation was determined via a peak using DSC (differential scanning calorimetry).
The time in minutes to oxidation was measured.

Compound | Time [min] at 180° C. (time to oxidation, oxidation induction time) [min] | protective effect as aging stabilizer (from OIT) (taking into account measurement accuracy of 10 minutes)
CC1CCC2C(C1)Nc1ccc(Nc3ccccc3)cc1C2(C)C (stereo not drawn) [Formula III), 6,9,9-trimethyl-N-phenyl-5,6,7,8,8a,9,10,10a-octahydroacridin-2-amine] | 93 ± 10 | protective effect comparable to 6PPD
CC(C)CC(C)Nc1ccc(Nc2ccccc2)cc1 (stereo not drawn) [Substance 6PPD, N-(1,3-dimethylbutyl)-N′-phenyl-p-phenylenediamine, reference compound] | 116 ± 10 | 
